Read-outs that look alike come from different tables or passages of the source.
Legend:
[1] = test system: morphine-induced pruritus mice; test: Inhibitory effect for pruritus in morphine-induced pruritus mice; format: in vivo, male ddY mice; conditions: oral, dose of 30 mg/kg or less, 30 minutes before intrathecal morphine (1 nmol/5 μL); scratching counted for 30 minutes
Protocol: Morphine (1 nmol/5 μL, dissolved in physiological saline) or physiological saline was intrathecally administered between the fifth and sixth lumbar vertebrae of male ddY mice using a microsyringe fitted with a 30-gauge injection needle. Mice administered with only morphine were used as a control group, and mice administered with only physiological saline as a physiological saline-administered group.
After the morphine administration, the number of scratching behavior with the hind legs which observed immediately in the mice was measured for 30 minutes. Because mice show a rapid, continuous scratching behavior in each scratching behavior, a series of such behavior was counted as a single scratching behavior.
The test compounds were administered 30 minutes before the morphine administration. Each test compound was suspended in a 0.5% methylcellulose solution, and orally administered in 10 mL/kg volume.

[2] = target: T1, human Cav3.2 T-type Ca2+ channel (Homo sapiens, UniProt O95180); test: Inhibitory effect for intracellular calcium response via Cav3.2 T-type Ca2+ channels (FLIPR Calcium 3 Assay Kit); format: cell-based
T1 construct: expressed in transfected cells; host or cells: KJMGER8 cells (Namalwa cell-derived cell line)
T1 sequence (O95180 whole entry): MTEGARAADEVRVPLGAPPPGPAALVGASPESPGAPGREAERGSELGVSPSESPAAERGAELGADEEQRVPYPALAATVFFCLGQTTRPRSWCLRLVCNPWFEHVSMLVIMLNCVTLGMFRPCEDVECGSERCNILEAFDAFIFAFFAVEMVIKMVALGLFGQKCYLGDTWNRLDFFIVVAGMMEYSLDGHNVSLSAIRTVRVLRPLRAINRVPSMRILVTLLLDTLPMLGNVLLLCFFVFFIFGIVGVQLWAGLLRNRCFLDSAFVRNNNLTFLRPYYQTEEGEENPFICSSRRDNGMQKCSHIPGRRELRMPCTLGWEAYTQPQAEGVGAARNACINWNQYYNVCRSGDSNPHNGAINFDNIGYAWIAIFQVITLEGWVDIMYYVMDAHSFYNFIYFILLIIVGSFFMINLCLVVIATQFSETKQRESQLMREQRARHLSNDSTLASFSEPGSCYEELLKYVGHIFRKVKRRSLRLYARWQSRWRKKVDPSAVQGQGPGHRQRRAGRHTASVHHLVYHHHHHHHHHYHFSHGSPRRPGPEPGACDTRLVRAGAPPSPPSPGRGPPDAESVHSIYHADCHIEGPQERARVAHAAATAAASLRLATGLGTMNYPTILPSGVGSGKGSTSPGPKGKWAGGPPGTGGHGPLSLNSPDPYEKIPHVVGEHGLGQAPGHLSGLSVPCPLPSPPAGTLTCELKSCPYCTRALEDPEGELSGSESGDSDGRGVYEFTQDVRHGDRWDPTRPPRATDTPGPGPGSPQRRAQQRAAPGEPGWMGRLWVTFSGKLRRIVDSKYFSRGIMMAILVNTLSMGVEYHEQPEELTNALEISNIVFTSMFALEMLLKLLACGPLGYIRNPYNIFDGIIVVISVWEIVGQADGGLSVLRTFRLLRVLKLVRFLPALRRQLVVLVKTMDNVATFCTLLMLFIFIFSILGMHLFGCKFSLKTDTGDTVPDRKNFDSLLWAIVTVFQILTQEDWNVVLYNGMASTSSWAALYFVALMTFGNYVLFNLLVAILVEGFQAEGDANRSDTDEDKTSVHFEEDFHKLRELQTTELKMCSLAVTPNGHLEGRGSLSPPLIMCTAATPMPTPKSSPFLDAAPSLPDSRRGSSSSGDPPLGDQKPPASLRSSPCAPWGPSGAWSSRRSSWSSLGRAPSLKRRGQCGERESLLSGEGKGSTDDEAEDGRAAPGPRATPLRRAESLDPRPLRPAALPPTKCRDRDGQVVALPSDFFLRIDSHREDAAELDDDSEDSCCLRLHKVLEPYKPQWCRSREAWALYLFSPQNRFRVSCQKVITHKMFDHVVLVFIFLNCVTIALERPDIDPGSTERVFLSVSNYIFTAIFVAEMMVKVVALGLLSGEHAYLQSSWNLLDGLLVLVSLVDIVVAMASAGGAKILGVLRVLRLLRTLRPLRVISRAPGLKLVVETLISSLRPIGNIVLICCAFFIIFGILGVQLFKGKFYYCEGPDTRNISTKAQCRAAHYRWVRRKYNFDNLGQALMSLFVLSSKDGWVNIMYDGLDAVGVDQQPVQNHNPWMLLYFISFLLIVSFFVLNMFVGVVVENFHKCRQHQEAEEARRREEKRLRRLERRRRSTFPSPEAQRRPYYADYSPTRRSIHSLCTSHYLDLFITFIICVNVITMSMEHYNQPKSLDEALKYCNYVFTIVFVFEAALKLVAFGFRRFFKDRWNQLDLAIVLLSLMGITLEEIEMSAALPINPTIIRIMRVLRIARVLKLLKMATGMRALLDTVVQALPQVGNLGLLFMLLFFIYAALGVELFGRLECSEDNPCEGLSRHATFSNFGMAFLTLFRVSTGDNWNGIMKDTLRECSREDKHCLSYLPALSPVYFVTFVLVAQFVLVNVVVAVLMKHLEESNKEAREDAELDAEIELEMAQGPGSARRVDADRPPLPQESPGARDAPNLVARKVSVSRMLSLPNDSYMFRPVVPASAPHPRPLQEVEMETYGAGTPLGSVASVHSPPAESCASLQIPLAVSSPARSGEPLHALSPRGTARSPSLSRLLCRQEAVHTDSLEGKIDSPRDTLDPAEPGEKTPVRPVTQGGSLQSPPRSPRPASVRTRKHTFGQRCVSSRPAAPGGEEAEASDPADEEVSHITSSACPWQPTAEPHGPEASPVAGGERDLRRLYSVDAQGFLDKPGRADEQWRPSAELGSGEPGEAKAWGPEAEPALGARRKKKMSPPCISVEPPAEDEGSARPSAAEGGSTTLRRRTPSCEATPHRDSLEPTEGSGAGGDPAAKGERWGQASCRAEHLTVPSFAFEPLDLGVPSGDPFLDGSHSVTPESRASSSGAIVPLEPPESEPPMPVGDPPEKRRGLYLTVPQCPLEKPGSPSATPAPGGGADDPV

[3] = human Cav3.2-expressing KJMGER8 cells (Namalwa-derived), calcium response induced by 5 mmol/L CaCl2, normalised to 3 μmol/L mibefradil, read-out: IC50 for the human Cav3.2 T-type Ca2+ current

Structure (SMILES)	increase of the scratching behavior observed in the morphine-induced pruritus mice [1]	IC50 [2] [nM]	IC50 [2, 3] [nM]
Cc1cc(C(=O)NC2CCOCC2)cc2nc(C3(C)CC3)c(CC3CCC(F)(F)CC3)n12 [Compound 100, 3-(4,4-Difluorocyclohexylmethyl)-5-methyl-2-(1-methylcyclopropyl)-N-(tetrahydro-2H-pyran-4-yl)imidazo[1,2-a]pyridine-7-carboxamide]	inhibited	< 100	–
Cc1cc(C(=O)NC2CCOCC2)cc2nc(C(C)C)c(CC3CCC(F)(F)CC3)n12 [Compound 101, 3-(4,4-Difluorocyclohexylmethyl)-2-isopropyl-5-methyl-N-(tetrahydro-2H-pyran-4-yl)imidazo[1,2-a]pyridine-7-carboxamide]	inhibited	< 100	–
O=C(N[C@H]1CC[C@H](O)CC1)c1cc(Cl)n2c(CC3CCC(F)(F)CC3)c(C(F)(F)F)nc2c1 [Compound 103, 5-Chloro-3-(4,4-difluorocyclohexylmethyl)-N-(trans-4-hydroxycyclohexyl)-2-trifluoromethylimidazo[1,2-a]pyridine-7-carboxamide]	inhibited	< 100	–
O=C(NC1CCOCC1)c1cc(Cl)n2c(CC3CCC(F)(F)CC3)c(C(F)(F)F)nc2c1 [Compound 104, 5-Chloro-3-(4,4-difluorocyclohexylmethyl)-N-(tetrahydro-2H-pyran-4-yl)-2-trifluoromethylimidazo[1,2-a]pyridine-7-carboxamide]	inhibited	< 100	–
CC1(C)CC(NC(=O)c2cc(Cl)n3c(CC4CCC(F)(F)CC4)c(C(F)(F)F)nc3c2)CCO1 (stereo not drawn) [Compound 105, 5-Chloro-3-(4,4-difluorocyclohexylmethyl)-N-(2,2-dimethyltetrahydro-2H-pyran-4-yl)-2-trifluoromethylimidazo[1,2-a]pyridine-7-carboxamide]	inhibited	< 100	–
O=C(NC1CCOCC1)c1cc2nc(C(F)(F)F)c(CC3CCC(F)(F)CC3)n2cc1Cl [Compound 108, 6-Chloro-3-(4,4-difluorocyclohexylmethyl)-N-(tetrahydro-2H-pyran-4-yl)-2-trifluoromethylimidazo[1,2-a]pyridine-7-carboxamide]	inhibited	< 100	–
CC(F)(F)c1nc2cc(C(=O)NC3CCOCC3)c(Cl)cn2c1CC1CCC(F)(F)CC1 [Compound 109, 6-Chloro-3-(4,4-difluorocyclohexylmethyl)-2-(1,1-difluoroethyl)-N-(tetrahydro-2H-pyran-4-yl)imidazo[1,2-a]pyridine-7-carboxamide]	inhibited	< 100	–
O=C(NC1CCOCC1)c1cc2nc(C3(C(F)(F)F)CC3)c(CC3CCC(F)(F)CC3)n2cc1Cl [Compound 110, 6-Chloro-3-(4,4-difluorocyclohexylmethyl)-N-(tetrahydro-2H-pyran-4-yl)-2-{1-(trifluoromethyl)cyclopropyl}imidazo[1,2-a]pyridine-7-carboxamide]	inhibited	< 100	–
CC(C)c1nc2cc(C(=O)NC3CCOCC3)c(Cl)cn2c1CC1CCC(F)(F)CC1 [Compound 111, 6-Chloro-3-(4,4-difluorocyclohexylmethyl)-2-isopropyl-N-(tetrahydro-2H-pyran-4-yl)imidazo[1,2-a]pyridine-7-carboxamide]	inhibited	< 100	–
CC(C)(C)c1nc2cc(C(=O)NC3CCOCC3)c(Cl)cn2c1CC1CCC(F)(F)CC1 [Compound 113, 2-tert-Butyl-6-chloro-3-(4,4-difluorocyclohexylmethyl)-N-(tetrahydro-2H-pyran-4-yl)imidazo[1,2-a]pyridine-7-carboxamide]	inhibited	< 100	–
CC1(c2nc3cc(C(=O)NC4CCOCC4)c(Cl)cn3c2CC2CCC(F)(F)CC2)CC1 [Compound 114, 6-Chloro-3-(4,4-difluorocyclohexylmethyl)-2-(1-methylcyclopropyl)-N-(tetrahydro-2H-pyran-4-yl)imidazo[1,2-a]pyridine-7-carboxamide]	inhibited	–	< 100
O=C(Nc1ccn2c(CC3CCC(F)(F)CC3)c(C(F)(F)F)nc2c1)c1ccccc1 [Compound 126, N-{3-(4,4-Difluorocyclohexylmethyl)-2-trifluoromethylimidazo[1,2-a]pyridin-7-yl}benzamide]	inhibited	< 100	–
CC(C)c1nc2cc(C(=O)Nc3ccccc3)ccn2c1S(=O)(=O)N1CC(F)(F)C1 [Compound 133, 3-(3,3-Difluoroazetidin-1-ylsulfonyl)-2-isopropyl-N-phenylimidazo[1,2-a]pyridine-7-carboxamide]	inhibited	–	< 100
Cc1cc(NC(=O)c2cc3nc(C(C)C)c(S(=O)(=O)N4CC(F)(F)C4)n3cc2Cl)on1 [Compound 148, 6-Chloro-3-(3,3-difluoroazetidin-1-ylsulfonyl)-2-isopropyl-N-(3-methylisooxazol-5-yl)imidazo[1,2-a]pyridine-7-carboxamide]	inhibited	–	< 100
CC(C)(O)CNC(=O)c1cc(Cl)n2c(CC3CCC(F)(F)CC3)c(C(F)(F)F)nc2c1 [Compound 182, 5-Chloro-3-(4,4-difluorocyclohexylmethyl)-N-(2-hydroxy-2-methylpropyl)-2-trifluoromethylimidazo[1,2-a]pyridine-7-carboxamide]	inhibited	< 100	–

Source: patent US9000186B2, “Ring-fused heterocyclic derivative” (Kyowa Hakko Kirin Co., Ltd., priority 2011, dated 2015)
